Our source for the IC50 values is patent US9663525B2, “Pyrazolopyrimidinyl inhibitors of ubiquitin-activating enzyme” (Millennium Pharmaceuticals, Inc., priority 2012, dated 2017).

The target in this test is recombinant human UAE (Homo sapiens (Human), UniProt P22314). Kind of test: Ubiquitin Activating Enzyme (UAE) HTRF assay, human UAE.
Sequence of recombinant human UAE (P22314 whole entry): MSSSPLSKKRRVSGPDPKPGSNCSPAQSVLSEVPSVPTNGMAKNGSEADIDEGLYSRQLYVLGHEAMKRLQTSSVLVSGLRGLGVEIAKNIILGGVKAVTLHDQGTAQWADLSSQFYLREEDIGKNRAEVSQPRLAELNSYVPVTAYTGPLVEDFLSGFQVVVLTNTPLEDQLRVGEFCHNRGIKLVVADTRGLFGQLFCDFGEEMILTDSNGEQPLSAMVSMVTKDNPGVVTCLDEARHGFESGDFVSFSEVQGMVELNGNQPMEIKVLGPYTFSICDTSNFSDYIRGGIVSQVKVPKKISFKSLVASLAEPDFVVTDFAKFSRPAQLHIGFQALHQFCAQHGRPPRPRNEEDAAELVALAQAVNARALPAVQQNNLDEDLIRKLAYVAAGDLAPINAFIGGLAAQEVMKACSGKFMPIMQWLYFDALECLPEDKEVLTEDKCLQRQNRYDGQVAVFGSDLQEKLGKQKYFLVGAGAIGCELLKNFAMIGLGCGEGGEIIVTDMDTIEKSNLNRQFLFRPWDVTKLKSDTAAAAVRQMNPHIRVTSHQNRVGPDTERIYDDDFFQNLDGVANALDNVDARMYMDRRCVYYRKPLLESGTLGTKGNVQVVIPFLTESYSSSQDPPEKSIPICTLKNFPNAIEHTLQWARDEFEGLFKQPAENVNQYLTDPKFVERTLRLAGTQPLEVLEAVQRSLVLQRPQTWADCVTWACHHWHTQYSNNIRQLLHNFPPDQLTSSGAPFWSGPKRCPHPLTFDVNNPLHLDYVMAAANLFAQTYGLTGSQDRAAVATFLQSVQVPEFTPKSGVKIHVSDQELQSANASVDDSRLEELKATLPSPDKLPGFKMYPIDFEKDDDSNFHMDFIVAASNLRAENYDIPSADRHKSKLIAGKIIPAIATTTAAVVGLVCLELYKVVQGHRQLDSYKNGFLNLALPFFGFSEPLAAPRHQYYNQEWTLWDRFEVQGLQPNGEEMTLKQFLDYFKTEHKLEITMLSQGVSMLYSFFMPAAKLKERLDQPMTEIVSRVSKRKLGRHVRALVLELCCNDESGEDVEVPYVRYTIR

Description: After incubation for 120 minutes, quantification of the FRET is performed on the Pherostar (BMG).
For compounds whose values are marked with an asterisk (*), mouse UAE was used. For all other compounds, human UAE was used.

`NS(=O)(=O)OC[C@H]1C[C@@H](Nc2ccnc3cc(-c4cccc(-c5ccccc5)c4)nn23)[C@H](O)[C@@H]1O` (racemic) [Compound I-003, (rac)((1R,2R,3S,4R)-4-(2-(biphenyl-3-yl)pyrazolo[1,5-a]pyrimidin-7-ylamino)-2,3-dihydroxycyclopentyl)methyl rel-sulfamate]: the IC50 is less than 10 nM.
For the compound `NS(=O)(=O)OC[C@H]1C[C@@H](Nc2ccnc3cc(-c4cccc(C(F)(F)F)c4)nn23)[C@H](O)[C@@H]1O` (racemic) [Compound I-007, (rac)-((1R,2R,3S,4R)-2,3-Dihydroxy-4-((2-(3-(trifluoromethyl)phenyl)pyrazolo[1,5-a]pyrimidin-7-yl)amino)cyclopentyl)methyl rel-sulfamate], the concentration for half-maximal inhibition (IC50) was less than 10 nM.
The figure for `NS(=O)(=O)OC[C@H]1C[C@@H](Nc2cc(Cl)nc3cc(-c4ccc(Br)cc4)nn23)[C@H](O)[C@@H]1O` (racemic) [Compound I-008, (rac)-((1R,2R,3S,4R)-4-(2-(4-bromophenyl)-5-chloropyrazolo[1,5-a]pyrimidin-7-ylamino)-2,3-dihydroxycyclopentyl)methyl rel-sulfamate] is 100 to 1000 nM; for `NS(=O)(=O)OC[C@H]1C[C@@H](Nc2cc(Cl)nc3cc(-c4cccc5ccccc45)nn23)[C@H](O)[C@@H]1O` (racemic) [Compound I-009, (rac)-((1R,2R,3S,4R)-4-{[5-chloro-2-(1-naphthyl)pyrazolo[1,5-a]pyrimidin-7-yl]amino}-2,3-dihydroxycyclopentyl)methyl rel-sulfamate] it is 100 to 1000 nM; for `NS(=O)(=O)OC[C@H]1C[C@@H](Nc2ccnc3cc(-c4cccc5c4oc4ccccc45)nn23)[C@H](O)[C@@H]1O` (racemic) [Compound I-010, (rac)-((1R,2R,3S,4R)-4-(2-(dibenzo[b,d]furan-4-yl)pyrazolo[1,5-a]pyrimidin-7-ylamino)-2,3-dihydroxycyclopentyl)methyl rel-sulfamate] it is less than 10 nM.
For `NS(=O)(=O)OC[C@H]1C[C@@H](Nc2ccnc3cc(-c4ccc(Cl)cc4Cl)nn23)[C@H](O)[C@@H]1O` (racemic) [Compound I-013, (rac)-[(1R,2R,3S,4R)-4-{[2-(2,4-dichlorophenyl)pyrazolo[1,5-a]pyrimidin-7-yl]amino}-2,3-dihydroxycylopentyl]methyl rel-sulfamate] the value was 10 to 100 nM; for `COc1ccc(-c2cc3nc(Cl)cc(N[C@@H]4C[C@H](COS(N)(=O)=O)[C@@H](O)[C@H]4O)n3n2)cc1` (racemic) [Compound I-014, (rac)-[(1R,2R,3S,4R)-4-{[5-chloro-2-(4-methoxyphenyl)pyrazolo[1,5-a]-pyrimidin-7-yl]amino}-2,3-dihydroxycyclopentyl]methyl rel-sulfamate], 100 to 1000 nM; for `CC(C)(C)c1cccc(-c2cc3nccc(N[C@@H]4C[C@H](COS(N)(=O)=O)[C@@H](O)[C@H]4O)n3n2)c1` (racemic) [Compound I-015, (rac)-((1R,2R,3S,4R)-4-((2-(3-(tert-Butyl)phenyl)pyrazolo[1,5-a]pyrimidin-7-yl)amino)-2,3-dihydroxycyclopentyl)methyl rel-sulfamate], less than 10 nM.
With `NS(=O)(=O)OC[C@H]1C[C@@H](Nc2ccnc3cc(-c4ccc5ccccc5c4)nn23)[C@H](O)[C@@H]1O` (racemic) [Compound I-016, (rac)-((1R,2R,3S,4R)-2,3-dihydroxy-4-(2-(naphthalen-2-yl)pyrazolo[1,5-a]pyrimidin-7-ylamino)cyclopentyl)methyl rel-sulfamate], the IC50 is less than 10 nM.
The figure for `NS(=O)(=O)OC[C@H]1C[C@@H](Nc2ccnc3cc(-c4cccc5cccnc45)nn23)[C@H](O)[C@@H]1O` (racemic) [Compound I-017, (rac)-((1R,2R,3S,4R)-2,3-Dihydroxy-4-((2-(quinolin-8-yl)pyrazolo[1,5-a]pyrimidin-7-yl)amino)cyclopentyl)methyl rel-sulfamate] is less than 10 nM; for `NS(=O)(=O)OC[C@H]1C[C@@H](Nc2ccnc3cc(-c4cncc5ccccc45)nn23)[C@H](O)[C@@H]1O` (racemic) [Compound I-018, (rac)-((1R,2R,3S,4R)-2,3-dihydroxy-4-(2-(isoquinolin-4-yl)pyrazolo[1,5-a]pyrimidin-7-ylamino)cyclopentyl)methyl rel-sulfamate] it is less than 10 nM.
As to `NS(=O)(=O)OC[C@H]1C[C@@H](Nc2ccnc3cc(-c4ccc5oc6ccccc6c5c4)nn23)[C@H](O)[C@@H]1O` (racemic) [Compound I-019, (rac)-((1R,2R,3S,4R)-4-(2-(dibenzo[b,d]furan-2-yl)pyrazolo[1,5-a]pyrimidin-7-ylamino)-2,3-dihydroxycyclopentyl)methyl rel-sulfamate], the half-inhibitory concentration (IC50) is less than 10 nM.
As for `COc1ccc(Cl)cc1-c1cc2nccc(N[C@@H]3C[C@H](COS(N)(=O)=O)[C@@H](O)[C@H]3O)n2n1` (racemic) [Compound I-020, (rac)-((1R,2R,3S,4R)-4-(2-(5-chloro-2-methoxyphenyl)pyrazolo[1,5-a]pyrimidin-7-ylamino)-2,3-dihydroxycyclopentyl)methyl rel-sulfamate], the half-maximal inhibitory concentration (IC50) is less than 10 nM.
For `Cc1ccc(Cl)cc1-c1cc2nccc(N[C@@H]3C[C@H](COS(N)(=O)=O)[C@@H](O)[C@H]3O)n2n1` (racemic) [Compound I-021, (rac)-((1R,2R,3S,4R)-4-(2-(5-chloro-2-methylphenyl)pyrazolo[1,5-a]pyrimidin-7-ylamino)-2,3-dihydroxycyclopentyl)methyl rel-sulfamate], the 50% inhibitory concentration (IC50) is less than 10 nM.
Take `NS(=O)(=O)OC[C@H]1C[C@@H](Nc2ccnc3cc(-c4csc5ccccc45)nn23)[C@H](O)[C@@H]1O` (racemic) [Compound I-022, (rac)-((1R,2R,3S,4R)-4-(2-(benzo[b]thiophen-3-yl)pyrazolo[1,5-a]pyrimidin-7-ylamino)-2,3-dihydroxycyclopentyl)methyl rel-sulfamate]: the IC50 was less than 10 nM.
With `CC1(C)COc2c(-c3cc4nccc(N[C@@H]5C[C@H](COS(N)(=O)=O)[C@@H](O)[C@H]5O)n4n3)cccc21` (racemic) [Compound I-023, (rac)-((1R,2R,3S,4R)-4-(2-(3,3-dimethyl-2,3-dihydrobenzofuran-7-yl)pyrazolo[1,5-a]pyrimidin-7-ylamino)-2,3-dihydroxycyclopentyl)methyl rel-sulfamate], the IC50 was 10 to 100 nM.
With `NS(=O)(=O)OC[C@H]1C[C@@H](Nc2ccnc3cc(-c4cc5ccccc5[nH]4)nn23)[C@H](O)[C@@H]1O` (racemic) [Compound I-024, (rac)-((1R,2R,3S,4R)-4-(2-(1H-indol-2-yl)pyrazolo[1,5-a]pyrimidin-7-ylamino)-2,3-dihydroxycyclopentyl)methyl rel-sulfamate], the 50% inhibitory concentration (IC50) is less than 10 nM.
Turning to `NS(=O)(=O)OC[C@H]1C[C@@H](Nc2ccnc3cc(-c4cnc5ccccc5c4)nn23)[C@H](O)[C@@H]1O` (racemic) [Compound I-025, (rac)-((1R,2R,3S,4R)-2,3-dihydroxy-4-(2-(quinolin-3-yl)pyrazolo[1,5-a]pyrimidin-7-ylamino)cyclopentyl)methyl rel-sulfamate], the IC50 lay within 10 to 100 nM.
As for `NS(=O)(=O)OC[C@H]1C[C@@H](Nc2ccnc3cc(-c4cccc5cnccc45)nn23)[C@H](O)[C@@H]1O` (racemic) [Compound I-027, (rac)-((1R,2R,3S,4R)-2,3-dihydroxy-4-(2-(isoquinolin-5-yl)pyrazolo[1,5-a]pyrimidin-7-ylamino)cyclopentyl)methyl rel-sulfamate], the IC50 was less than 10 nM.
For the compound `NS(=O)(=O)OC[C@H]1C[C@@H](Nc2ccnc3cc(-c4cccc(Br)c4)nn23)[C@H](O)[C@@H]1O` (racemic) [Compound I-028, (rac)-((1R,2R,3S,4R)-4-((2-(3-Bromophenyl)pyrazolo[1,5-a]pyrimidin-7-yl)amino)-2,3-dihydroxycyclopentyl)methyl rel-sulfamate], the 50% inhibitory concentration (IC50) is less than 10 nM.
As to `NS(=O)(=O)OC[C@H]1C[C@@H](Nc2ccnc3cc(-c4c[nH]c5ccccc45)nn23)[C@H](O)[C@@H]1O` (racemic) [Compound I-032, (rac)-[(1R,2R,3S,4R)-2,3-dihydroxy-4-{[2-(1H-indol-3-yl)pyrazolo[1,5-a]pyrimidin-7-yl]amino}cyclopentyl]methyl rel-sulfamate], the half-maximal inhibitory concentration (IC50) is less than 10 nM.
For `NS(=O)(=O)OC[C@H]1C[C@@H](Nc2ccnc3cc(-c4ccc(C(F)(F)F)c5cccnc45)nn23)[C@H](O)[C@@H]1O` (racemic) [Compound I-033, (rac)-((1R,2R,3S,4R)-2,3-dihydroxy-4-(2-(5-(trifluoromethyl)quinolin-8-yl)pyrazolo[1,5-a]pyrimidin-7-ylamino)cyclopentyl)methyl rel-sulfamate], the IC50 is less than 10 nM.
`NS(=O)(=O)OC[C@H]1C[C@@H](Nc2ccnc3cc(-c4ccc5ncccc5c4)nn23)[C@H](O)[C@@H]1O` (racemic) [Compound I-034, (rac)-((1R,2R,3S,4R)-2,3-dihydroxy-4-(2-(quinolin-6-yl)pyrazolo[1,5-a]pyrimidin-7-ylamino)cyclopentyl)methyl rel-sulfamate]: the IC50 is less than 10 nM.
Take `C[Si](C)(C)c1cccc(-c2cc3nccc(N[C@@H]4C[C@H](COS(N)(=O)=O)[C@@H](O)[C@H]4O)n3n2)c1` (racemic) [Compound I-035, (rac)-((1R,2R,3S,4R)-2,3-dihydroxy-4-(2-(3-(trimethylsilyl)phenyl)pyrazolo[1,5-a]pyrimidin-7-ylamino)cyclopentyl)methyl rel-sulfamate]: the 50% inhibitory concentration (IC50) was less than 10 nM.
As to `NS(=O)(=O)OC[C@H]1C[C@@H](Nc2ccnc3cc(-c4cccc(-c5ccccn5)c4)nn23)[C@H](O)[C@@H]1O` (racemic) [Compound I-036, (rac)-((1R,2R,3S,4R)-2,3-Dihydroxy-4-((2-(3-(pyridin-2-yl)phenyl)pyrazolo[1,5-a]pyrimidin-7-yl)amino)cyclopentyl)methyl rel-sulfamate], the IC50 is less than 10 nM.
With `NS(=O)(=O)OC[C@H]1C[C@@H](Nc2ccnc3cc(-c4ccc5[nH]c6ccccc6c5c4)nn23)[C@H](O)[C@@H]1O` (racemic) [Compound I-037, (rac)-[(1R,2R,3S,4R)-4-{[2-(9H-carbazol-3-yl)pyrazolo[1,5-a]pyrimidin-7-yl]amino}-2,3-dihydroxycyclopentyl]methyl rel-sulfamate], the IC50 is less than 10 nM.
